What was measured:
Test in all cases: relative viability (nuclei count vs DMSO), 5 days (fraction); higher = more cells survive
R406 + Lapatinib = compound: COc1cc(Nc2ncc(F)c(Nc3ccc4c(n3)NC(=O)C(C)(C)O4)n2)cc(OC)c1OC [R406] + CS(=O)(=O)CCNCc1ccc(-c2ccc3ncnc(Nc4ccc(OCc5cccc(F)c5)c(Cl)c4)c3c2)o1 [Lapatinib] (partner 2 µM)
Outline: (§1)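 Lung cancer cell lines were pin-tool dosed in 1536-well plates on the day after seeding, with either a lone drug or a fixed anchor-drug dose plus five library-drug doses (not always all listed) in √10 steps. Nuclei were counted on 4× images after 5 days. Relative viability is the ratio of treated-well to vehicle-well nuclei counts, with each value a median of duplicate plates.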

Daporinad + Alpelisib = compound: O=C(/C=C/c1cccnc1)NCCCCC1CCN(C(=O)c2ccccc2)CC1 [Daporinad] + Cc1nc(NC(=O)N2CCC[C@H]2C(N)=O)sc1-c1ccnc(C(C)(C)C(F)(F)F)c1 [Alpelisib] (partner 2 µM)
Outline: as §1

R406 + Pictilisib = compound: COc1cc(Nc2ncc(F)c(Nc3ccc4c(n3)NC(=O)C(C)(C)O4)n2)cc(OC)c1OC [R406] + CS(=O)(=O)N1CCN(Cc2cc3nc(-c4cccc5[nH]ncc45)nc(N4CCOCC4)c3s2)CC1 [Pictilisib] (partner 1 µM)
Outline: as §1

Daporinad + Lapatinib = compound: O=C(/C=C/c1cccnc1)NCCCCC1CCN(C(=O)c2ccccc2)CC1 [Daporinad] + CS(=O)(=O)CCNCc1ccc(-c2ccc3ncnc(Nc4ccc(OCc5cccc(F)c5)c(Cl)c4)c3c2)o1 [Lapatinib] (partner 2 µM)
Outline: as §1

Cell Line | relative viability (R406 + Lapatinib; first compound 0.08 µM) | relative viability (R406 + Lapatinib; first compound 0.253 µM) | relative viability (R406 + Lapatinib; first compound 0.8 µM) | relative viability (R406 + Lapatinib; first compound 2.53 µM) | relative viability (R406 + Lapatinib; first compound 8 µM) | relative viability (Daporinad + Alpelisib; first compound 0.0005 µM) | relative viability (Daporinad + Alpelisib; first compound 0.001581 µM) | relative viability (Daporinad + Alpelisib; first compound 0.005 µM) | relative viability (Daporinad + Alpelisib; first compound 0.01581 µM) | relative viability (R406 + Pictilisib; first compound 0.08 µM) | relative viability (R406 + Pictilisib; first compound 0.253 µM) | relative viability (R406 + Pictilisib; first compound 0.8 µM) | relative viability (R406 + Pictilisib; first compound 2.53 µM) | relative viability (R406 + Pictilisib; first compound 8 µM) | relative viability (Daporinad + Lapatinib; first compound 0.0005 µM) | relative viability (Daporinad + Lapatinib; first compound 0.001581 µM) | relative viability (Daporinad + Lapatinib; first compound 0.005 µM) | relative viability (Daporinad + Lapatinib; first compound 0.01581 µM)
NCI-H2170 | 0.253 | 0.25 | 0.247 | 0.272 | 0.258 | 0.811 | 0.825 | 0.795 | 0.839 | 0.307 | 0.269 | 0.302 | 0.194 | 0.24 | 0.285 | 0.263 | 0.274 | 0.276
NCI-H1793 | 0.823 | 0.692 | 0.641 | 0.144 | 0.207 | 0.745 | 0.749 | 0.732 | 0.792 | 0.367 | 0.354 | 0.492 | 0.168 | 0.23 | 0.337 | 0.935 | 0.535 | 0.805
NCI-H2085 | 0.783 | 0.851 | 0.894 | 0.52 | 0.591 | 0.952 | 1.01 | 1.14 | 1.07 | 0.413 | 0.505 | 0.459 | 0.482 | 0.37 | 0.739 | 0.741 | 0.871 | 0.855
NCI-H838 | 0.886 | 1.11 | 1.36 | 0.114 | 0.182 | 0.973 | 1.03 | 1.06 | 0.512 | 0.412 | 0.689 | 0.407 | 0.199 | 0.178 | 0.998 | 1.31 | 0.966 | 0.5
NCI-H460 | 1.07 | 1.51 |  |  | 0.308 | 0.54 | 0.64 | 0.502 | 0.566 | 0.33 | 0.426 | 0.38 | 0.224 | 0.259 | 0.797 | 1.15 | 1.08 | 1.04
LOU-NH91 | 0.785 | 0.792 | 0.734 | 0.564 | 0.537 | 0.719 | 0.795 | 0.851 | 0.997 | 0.524 | 0.526 | 0.46 | 0.405 | 0.414 | 0.767 | 0.788 | 0.932 | 0.952
NCI-H3122 | 1.01 | 1.06 | 0.981 | 0.969 | 0.934 | 0.659 | 0.964 | 0.78 | 0.708 | 0.581 | 0.59 | 0.668 | 0.576 | 0.604 | 1.01 | 1.12 | 1.01 | 1.02
NCI-H520 | 0.733 | 1.03 | 1.02 | 0.241 | 0.133 | 0.967 | 0.546 | 0.196 | 0.166 | 0.286 | 0.408 | 0.377 | 0.191 | 0.195 | 0.976 | 0.54 | 0.224 | 0.149
NCI-H661 | 0.435 | 0.48 | 0.413 | 0.362 | 0.277 | 0.635 | 0.506 | 0.649 | 0.401 | 0.367 | 0.456 | 0.459 | 0.345 | 0.271 | 0.374 | 0.443 | 0.403 | 0.402
NCI-H727 | 0.918 | 0.85 | 0.905 | 0.195 | 0.712 | 0.622 | 0.479 | 0.619 | 0.497 | 0.386 | 0.508 | 0.354 | 0.175 | 0.252 | 0.968 | 0.831 | 0.853 | 0.76
NCI-H1734 | 1.03 | 1.1 | 1.1 | 0.426 | 0.621 | 0.703 | 0.736 | 0.695 | 0.582 | 0.434 | 0.478 | 0.593 | 0.248 | 0.281 | 1.05 | 1.08 | 0.986 | 0.65
LXF-289 | 0.868 | 1.01 | 0.9 | 0.921 | 0.605 | 0.977 | 1.09 | 1.04 | 1.15 | 0.724 | 0.799 | 0.845 | 0.634 | 0.268 | 0.847 | 0.989 | 0.91 | 0.95
H3255 | 0.257 | 0.264 | 0.249 | 0.235 | 0.233 | 0.696 | 0.812 | 0.725 | 0.702 | 0.48 | 0.533 | 0.495 | 0.347 | 0.331 | 0.24 | 0.255 | 0.247 | 0.235
201T | 0.868 | 1.06 | 1.02 | 0.95 | 0.905 | 0.983 | 1.05 | 1 | 0.987 | 0.677 | 0.725 | 0.669 | 0.591 | 0.57 | 0.957 | 1.05 | 1.02 | 1.04
NCI-H2126 | 0.763 | 0.798 | 0.801 | 0.772 | 0.737 | 0.734 | 0.758 | 0.777 | 0.813 | 0.508 | 0.502 | 0.49 | 0.437 | 0.493 | 0.799 | 0.677 | 0.752 | 0.82
HOP-62 | 0.918 | 0.949 | 1.08 | 1.06 | 1.12 |  | 1.3 | 1.11 | 0.481 | 0.643 | 0.846 | 0.863 | 0.467 | 0.488 |  | 1.13 | 1.04 | 0.505
CAL-12T | 0.697 | 0.698 | 0.775 | 0.638 | 0.288 | 1.28 | 1.04 | 0.832 | 0.411 | 0.296 | 0.575 | 0.457 | 0.193 | 0.185 | 0.599 |  | 0.722 | 0.413
NCI-H596 | 1.04 | 1.2 | 0.972 | 0.867 | 0.421 | 0.539 | 0.551 | 0.617 | 0.372 | 0.368 | 0.362 | 0.392 | 0.316 | 0.252 | 0.941 | 1.22 | 1.08 | 0.544
